These results are taken from patent publication US20240085425A1, “BIOMARKER AND APPLICATION THEREOF” (ADLAI NORTYE BIOPHARMA CO., LTD., priority 2022, published 2024).

Residues, ends and D or L forms follow the SMILES beside them. *: point of attachment. Cbz = O=C(OCc1ccccc1)*

Holding throughout (format): cell-based
Assay [1] has as its system non-phosphorylated β-catenin. The experiment in a line: Non-phosphorylated β-catenin content in Colo205-LUC-TCF/LEF cells, compound plus MG132. Particulars: 200 nM compound plus 2 μM MG132, 4 hours, FIG. 2. The protocol: Add 500 ul medium containing 200 nM compound plus 2 μM MG132 or 200 nM compound plus control solvent to each well of a 6-well cell culture plate, then add 500 ul containing 10^6 Colo205-LUC-TCF/LEF cells respectively, and incubate for 4 hours Finally, the protein was collected to detect the content of non-phosphorylated β-catenin.

Assay [2] deals with non-phosphorylated β-catenin. Description: Western blot of non-phosphorylated β-catenin content in HepG2 cells. Particulars: overnight, read-out: Non-phosphorylated β-catenin content inhibition IC50. From the text:
(§1) The Wnt signaling pathway is a key pathway for abnormal tumor growth. In colon cancer, liver cancer, pancreatic cancer and other cancers, a large number of patients have abnormal activation of the Wnt signaling pathway. The Wnt signaling pathway depends on the fine balance of β-catenin protein level. When Wnt signaling is not activated, β-catenin is phosphorylated by CK1 and APC/Axin/GSK-3β complexes, and the β-catenin protein is kept at a low level through ubiquitin-dependent proteasome degradation. When the Wnt signaling pathway is activated, β-catenin maintains a stable state of non-phosphorylation, and non-phosphorylated β-catenin can be transported into the nucleus through Rac1 and other factors, and plays a transcriptional regulatory role by binding to LEF/TCF transcription factors in the nucleus, activates downstream target genes such as C-myc and Cyclin D1, and promotes cell proliferation. Therefore, abnormal activation of the Wnt signaling pathway in tumor cells will lead to abnormal proliferation of tumors. […]
(§2) Add 500 μL of the compound with the highest concentration shown in FIG. 1 to each well of the 6-well cell culture plate, and make a 10-fold gradient dilution of the compound concentration. […] Load the protein sample directly to the SDS-PAGE gel for electrophoresis separation, transfer the protein on the SDS-PAGE gel to the PVDF membrane; after the transfer was completed, the protein was blocked by Western blocking solution, then Rabbit anti-β-catenin non-phospho S37/After T41 (ab278503) was added and the protein was incubated at room temperature for one hour and washed, the content of non-phosphorylated β-catenin was detected by incubation with Goat Anti-Rabbit IgG H&L (HRP) (ab6721). […]
In general terms: A western blot detects proteins with antibodies after separation by electrophoresis.

The subject of assay [3] is non-phosphorylated β-catenin. Description: Western blot of non-phosphorylated β-catenin content in DU4475 cells. Particulars: overnight, read-out: Non-phosphorylated β-catenin content inhibition IC50.
Description: as §1, §2

Assay [4] deals with non-phosphorylated β-catenin. The experiment in a line: Western blot of non-phosphorylated β-catenin content in Colo205 cells. From the text:
The Wnt signaling pathway is a key pathway for abnormal tumor growth. In colon cancer, liver cancer, pancreatic cancer and other cancers, a large number of patients have abnormal activation of the Wnt signaling pathway. The Wnt signaling pathway depends on the fine balance of β-catenin protein level. When Wnt signaling is not activated, β-catenin is phosphorylated by CK1 and APC/Axin/GSK-3β complexes, and the β-catenin protein is kept at a low level through ubiquitin-dependent proteasome degradation. When the Wnt signaling pathway is activated, β-catenin maintains a stable state of non-phosphorylation, and non-phosphorylated β-catenin can be transported into the nucleus through Rac1 and other factors, and plays a transcriptional regulatory role by binding to LEF/TCF transcription factors in the nucleus, activates downstream target genes such as C-myc and Cyclin D1, and promotes cell proliferation. Therefore, abnormal activation of the Wnt signaling pathway in tumor cells will lead to abnormal proliferation of tumors. In order to explore the inhibitory mechanism of the compound on the proliferation of tumor cell lines, the compound AN10250399, AN10250421 or AN10250484 was used to treat sensitive cells Colo205, DU4475 and HepG2, and Western blot was used to detect the content of non-phosphorylated β-catenin in the Wnt pathway to clarify the effect of the compound on content of the non-phosphorylated β-catenin.
Add 500 μL of the compound with the highest concentration shown in FIG. 1 to each well of the 6-well cell culture plate, and make a 10-fold gradient dilution of the compound concentration. Then 500 μL of 10^6 Colo205, DU4475 and HepG2 or 500 μL of medium were inoculated into each well, and corresponding solvent treatment was performed simultaneously as negative control wells. The cells were placed in a 5% CO2 cell incubator, cultured overnight at 37° C. The culture medium was removed, washed once with PBS, 200 μL of RIPA buffer containing protease inhibitors was added to each well, and the protein lysate was collected after lysing on ice for 20 min. Add an appropriate amount of concentrated SDS-PAGE protein loading buffer to the collected protein lysate samples, and heat at 100° C. or in a boiling water bath for 3-5 minutes to fully denature the protein. Load the protein sample directly to the SDS-PAGE gel for electrophoresis separation, transfer the protein on the SDS-PAGE gel to the PVDF membrane; after the transfer was completed, the protein was blocked by Western blocking solution, then Rabbit anti-β-catenin non-phospho S37/After T41 (ab278503) was added and the protein was incubated at room temperature for one hour and washed, the content of non-phosphorylated β-catenin was detected by incubation with Goat Anti-Rabbit IgG H&L (HRP) (ab6721). As a control, glyceraldehyde-3-phosphate dehydrogenase (GAPDH) was used as an internal standard protein

Take `CC(C)C[C@@H](C=O)NC(=O)[C@H](CC(C)C)NC(=O)[C@H](CC(C)C)NC(=O)OCc1ccccc1` [MG132] (Cbz-Leu-Leu-Leu-aldehyde): the “Effect of MG132 on the reduction of non-phosphorylated β-catenin content caused by AN10250484” value in assay [1] is given as “reverses the reduction of the content of non-phosphorylated β-catenin”.

Regarding `Cc1nc(NCc2ccc(Oc3cnc(C(F)(F)F)nc3)nc2)nc2c1NC(=O)[C@H](C)N2C` [AN10250421], the IC50 (as a rule, the midpoint of a concentration-inhibition curve) worked out at 51.6 nM in assay [2]; 2.2 nM in assay [3]; 10 nM in assay [4] (overnight, Western blot, read-out: Non-phosphorylated β-catenin content inhibition IC50). Also, the “Effect on content of non-phosphorylated β-catenin (active β-catenin), in words” value in assay [4] (FIG. 1) is reported as “decrease the content of non-phosphorylated β-catenin”.
